In one series the test system is hiPSC-CMs. The experiment in a line: Spontaneous action potential recording in hiPSC-CMs (whole-cell current clamp). The series is classed as cell-based, human. As to the method: The hiPSC-CMs from human fibroblast cell lines (iCell Cardiomyocytes; Cellular Dynamics International, Madison, WI, USA) were purchased and cultured for single-cell electrophysiological recordings. Frozen vials of hiPSC-CMs were thawed in a water bath maintained at 37°C and mixed with ice-cold plating medium (iCell Cardiomyocyte Plating Medium, glucose-free). The cells were transferred to four-well culture plates containing 0.1% gelatin-coated glass coverslips and then maintained in a culture incubator at 37°C in an atmosphere of 93% air and 7% CO2. After 2 days of culture, the plating medium was replaced with culture medium (iCell Cardiomyocyte Maintenance Medium, glucose-free), which was then changed every 2 days. The hiPSC-CMs were cultured for 4 weeks and used at 7 to 28 days post-thaw for electrophysiological analysis. At this time, the amplitudes and intervals of the spontaneous APs are stabilized, and electrically connected syncytial layers are formed. […] The internal solution contained (in mM) 120 K-Asp, 20 KCl, 5 NaCl, 2 CaCl2, 10 HEPES, 5 EGTA, and 5 Mg-ATP (pH 7.25). We recorded typical APs in hiPSC-CMs in the current-clamp mode. The spontaneous beating activity or paced firing of single hiPSC-CMs were recorded, and only hiPSC-CMs that could beat stably were included in the analysis. Following stabilization of the AP waveforms, the average of six recorded APs for each test concentration was analyzed.
Using the patch-clamp technique, we measured the APs in spontaneously contracting cells isolated from hiPSC-CMs. […] Ventricular-type APs were distinguished based on the relatively more negative maximal diastolic potential (MDP) and rapid AP upstroke with long plateau phase.

Series [1] has as its target Ca2+-specific inward current (ICa) (Rattus norvegicus, UniProt P22002). The experiment in a line: Whole-cell patch clamp, ICa in isolated rat ventricular myocytes. In kind it is cell-based. From the text:
For various aspects of cardiac ion channel study, human embryonic kidney (HEK293; ATCC, Manassas, VA, USA) cells were transiently transfected using lipofectAmin2000 (Gibco BRL, New York, NY, USA) according to the manufacturer’s instructions. The hERG (human ether-ago-go-related gene corresponding to IKr), KCNQ1/KCNE1 (the gene corresponding to IKs), KCNJ2 (the gene corresponding to IK1) or SCN5A (the gene corresponding to INa) cDNA was co-transfected with green fluorescence protein, the surface marker protein, to allow assessment of the transfection efficiency. For the calcium current, enzymatically isolated single rat ventricular myocytes were used. Briefly, the hearts were rapidly excised from anaesthetized Sprague–Dawley rats (250–350 g) and perfused via the aorta on a Langendorff apparatus with an oxygenated normal Tyrode (NT) solution for 5 min. To clear the blood, then perfused with Ca^2+-free normal Tyrode solution for 3 min. […]
The external solution for recording the IhERG, IKs and INa channel currents was NT solution. […] The calcium current was measured in naïve rat ventricular myocytes, cells were superfused with an external solution that consisted of (in mM): 137 choline-Cl, 5 CsCl, 0.5 MgCl2, 2 4-AP, 10 HEPES, 10 glucose and 1.8 CaCl2 (pH 7.4 with NaOH), whereas the intracellular solution used to fill the pipette had the following ionic solution (in mM): 20 CsCl, 100 Cs-aspartate, 10 EGTA, 10 HEPES, 20 TEA-Cl, 5 Mg-ATP (pH 7.25 with KOH). […]
pCLAMP (Axon Instruments, Foster City, CA, USA), Origin 8 (OriginLab Corp, Northampton, MA, USA), and Excel (Microsoft, Redmond, WA, USA) were used for data acquisition and analysis. The concentration–response relationships for drug-induced blockage were calculated using SigmaPlot (Systat Software, San Jose, CA, USA). […] Statistical significance was determined using the Student’s t-test and one-way ANOVA with post hoc testing using Dunnett’s method; p < 0.05 was considered to indicate statistical significance. […]
(In patch-clamp work, channel activity is measured electrically.)

Ca2+-specific inward current (ICa), sequence (P22002 whole entry, other chains not shown): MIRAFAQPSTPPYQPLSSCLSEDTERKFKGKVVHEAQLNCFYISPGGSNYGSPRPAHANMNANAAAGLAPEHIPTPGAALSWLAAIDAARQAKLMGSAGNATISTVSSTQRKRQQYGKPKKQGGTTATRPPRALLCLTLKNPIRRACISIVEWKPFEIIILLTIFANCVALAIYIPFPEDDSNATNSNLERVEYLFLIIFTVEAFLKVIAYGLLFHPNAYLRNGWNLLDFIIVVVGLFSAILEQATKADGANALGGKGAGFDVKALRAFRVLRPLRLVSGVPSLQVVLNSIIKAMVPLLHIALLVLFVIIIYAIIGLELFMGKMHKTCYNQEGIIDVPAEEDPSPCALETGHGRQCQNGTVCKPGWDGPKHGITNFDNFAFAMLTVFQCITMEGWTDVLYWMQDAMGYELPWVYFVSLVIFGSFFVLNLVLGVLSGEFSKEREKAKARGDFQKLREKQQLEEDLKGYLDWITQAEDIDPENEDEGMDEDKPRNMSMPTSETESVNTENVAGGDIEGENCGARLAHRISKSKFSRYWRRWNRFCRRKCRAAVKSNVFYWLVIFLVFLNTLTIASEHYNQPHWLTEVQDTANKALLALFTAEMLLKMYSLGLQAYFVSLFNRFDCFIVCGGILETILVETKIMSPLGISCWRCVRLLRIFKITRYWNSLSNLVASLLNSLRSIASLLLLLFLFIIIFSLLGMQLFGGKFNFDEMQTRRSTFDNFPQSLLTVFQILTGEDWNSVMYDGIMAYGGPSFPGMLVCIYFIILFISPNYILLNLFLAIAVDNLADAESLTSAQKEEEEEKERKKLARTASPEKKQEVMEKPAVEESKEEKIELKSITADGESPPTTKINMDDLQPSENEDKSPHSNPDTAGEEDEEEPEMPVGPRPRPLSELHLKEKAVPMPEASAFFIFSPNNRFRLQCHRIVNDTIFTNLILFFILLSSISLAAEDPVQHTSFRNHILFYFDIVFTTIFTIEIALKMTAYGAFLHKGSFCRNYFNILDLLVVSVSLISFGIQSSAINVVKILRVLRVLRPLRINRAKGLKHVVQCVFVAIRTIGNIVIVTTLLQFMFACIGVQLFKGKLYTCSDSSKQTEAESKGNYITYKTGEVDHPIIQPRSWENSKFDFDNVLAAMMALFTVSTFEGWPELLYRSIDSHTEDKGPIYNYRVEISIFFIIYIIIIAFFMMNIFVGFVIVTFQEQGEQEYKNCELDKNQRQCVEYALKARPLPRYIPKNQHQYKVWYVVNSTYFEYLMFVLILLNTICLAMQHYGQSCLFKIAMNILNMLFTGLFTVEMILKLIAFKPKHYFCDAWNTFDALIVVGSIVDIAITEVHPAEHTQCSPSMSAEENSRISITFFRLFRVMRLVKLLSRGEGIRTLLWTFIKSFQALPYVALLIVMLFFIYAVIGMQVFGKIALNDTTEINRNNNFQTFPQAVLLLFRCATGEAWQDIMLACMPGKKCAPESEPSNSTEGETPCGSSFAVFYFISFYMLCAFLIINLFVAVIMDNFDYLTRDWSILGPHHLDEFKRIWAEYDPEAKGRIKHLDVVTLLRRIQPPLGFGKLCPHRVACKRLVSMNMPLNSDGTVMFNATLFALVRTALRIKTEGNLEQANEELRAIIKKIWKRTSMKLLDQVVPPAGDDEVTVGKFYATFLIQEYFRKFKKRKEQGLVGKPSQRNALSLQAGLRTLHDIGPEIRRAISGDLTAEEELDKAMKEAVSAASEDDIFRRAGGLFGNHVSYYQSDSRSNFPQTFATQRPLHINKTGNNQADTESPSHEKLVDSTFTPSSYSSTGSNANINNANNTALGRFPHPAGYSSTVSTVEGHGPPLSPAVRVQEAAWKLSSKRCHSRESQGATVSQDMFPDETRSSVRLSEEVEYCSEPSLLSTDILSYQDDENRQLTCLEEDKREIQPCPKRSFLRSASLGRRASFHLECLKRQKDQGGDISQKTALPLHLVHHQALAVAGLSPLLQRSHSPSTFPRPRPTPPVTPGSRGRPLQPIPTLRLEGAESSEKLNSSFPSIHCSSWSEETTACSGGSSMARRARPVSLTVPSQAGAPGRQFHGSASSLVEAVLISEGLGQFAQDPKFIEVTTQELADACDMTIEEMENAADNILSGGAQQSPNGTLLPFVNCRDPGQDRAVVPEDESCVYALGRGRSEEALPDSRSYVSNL
Ca2+-specific inward current (ICa), sequence (P54290 25-1091 partner, other chains not shown): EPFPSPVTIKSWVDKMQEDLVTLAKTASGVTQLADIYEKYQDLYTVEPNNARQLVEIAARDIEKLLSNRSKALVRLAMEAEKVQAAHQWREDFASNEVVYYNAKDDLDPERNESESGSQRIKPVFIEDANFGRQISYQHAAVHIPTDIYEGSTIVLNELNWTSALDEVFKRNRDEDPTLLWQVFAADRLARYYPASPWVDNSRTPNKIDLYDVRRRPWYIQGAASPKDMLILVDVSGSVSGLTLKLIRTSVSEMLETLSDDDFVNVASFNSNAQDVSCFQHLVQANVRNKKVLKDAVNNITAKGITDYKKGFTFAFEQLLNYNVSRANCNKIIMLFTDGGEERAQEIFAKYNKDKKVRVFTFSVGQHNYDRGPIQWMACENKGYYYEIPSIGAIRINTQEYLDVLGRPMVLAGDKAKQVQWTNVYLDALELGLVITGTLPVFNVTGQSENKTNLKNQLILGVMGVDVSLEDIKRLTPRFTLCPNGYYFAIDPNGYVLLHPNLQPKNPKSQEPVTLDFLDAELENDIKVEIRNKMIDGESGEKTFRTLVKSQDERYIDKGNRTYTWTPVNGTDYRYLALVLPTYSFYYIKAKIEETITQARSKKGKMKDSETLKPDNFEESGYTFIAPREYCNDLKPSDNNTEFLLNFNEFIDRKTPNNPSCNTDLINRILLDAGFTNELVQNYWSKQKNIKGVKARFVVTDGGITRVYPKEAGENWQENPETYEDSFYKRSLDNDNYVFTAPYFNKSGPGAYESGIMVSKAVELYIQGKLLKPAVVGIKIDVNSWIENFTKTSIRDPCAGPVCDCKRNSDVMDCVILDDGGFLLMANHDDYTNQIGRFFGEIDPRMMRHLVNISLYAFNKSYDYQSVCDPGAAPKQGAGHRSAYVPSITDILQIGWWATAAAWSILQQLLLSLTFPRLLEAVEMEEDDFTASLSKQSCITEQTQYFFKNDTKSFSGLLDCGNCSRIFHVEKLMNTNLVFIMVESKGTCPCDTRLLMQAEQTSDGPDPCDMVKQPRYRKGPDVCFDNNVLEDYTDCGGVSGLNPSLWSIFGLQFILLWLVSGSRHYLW

Take `COc1cc2c(Nc3ccc(Br)cc3F)ncnc2cc1OCC1CCN(C)CC1` [Vandetanib]: in the series on hiPSC-CMs (0.3 μM), the APA is on record as 104.2 ± 3.0 mV, the APD50 came out at 349.3 ± 50.9 ms, the APD90 came to 481.0 ± 53.9 ms and the MDP is recorded as -66.9 ± 2.3 mV. Also, the Vmax in the series with hiPSC-CMs (0.3 μM) came to 40.3 ± 13.9 V/s. In the series with hiPSC-CMs (1 μM), this compound had an APA of 105.5 ± 3.6 mV, an APD50 of 596.4 ± 158.8 ms, an APD90 of 880.9 ± 192.6 ms and an MDP of -64.5 ± 2.4 mV. Moreover, the Vmax in the series on hiPSC-CMs (1 μM) came out at 36.0 ± 13.0 V/s. In the series with hiPSC-CMs (3 μM), the APA is 100.7 ± 2.2 mV, the APD50 is recorded as 1243.0 ± 386.1 ms, the APD90 was 2047.9 ± 597.1 ms and the “Decrease of APA compared to vehicle control” value was found to be 4.2%. Further, in the series with hiPSC-CMs (3 μM), the “Decrease of MDP compared to vehicle control” value stood at 9%, the MDP is listed as -61.0 ± 1.5 mV and the Vmax is on record as 19.5 ± 6.5 V/s. In the series on hiPSC-CMs (3 μM, n = 6 cells), the “Early after depolarization (EAD)” value is on record as “induced at 3 μM of vandetanib in all cells tested”. The “Concentration from which prolongation of APD50 and APD90 was observed” value in the series with hiPSC-CMs (tested 0.3, 1, 3 μM) was not below 1 µM. Besides, the ICa current in series [1] (10 μM) is given as -1639.5 ± 238.1. In addition, in series [1] (30 μM), the ICa current is -990.7 ± 97.8. In series [1] (100 μM), the ICa current is on record as -219.7 ± 24.4.

The values are drawn from paper PMC5891061, “Electrophysiological mechanisms of vandetanib-induced cardiotoxicity: Comparison of action potentials in rabbit Purkinje fibers and pluripotent stem cell-derived cardiomyocytes” (PLoS ONE, 2018).
